Read-outs that look alike come from different tables or passages of the source.
What was measured:
[1] = pKa of sulfonamide amino group of inhibitor; cited from earlier work
CA VI [2] = biological target: T1, CA VI (Homo sapiens, UniProt P23280); details: FTSA, pH 7.0, 37 °C; read-out: Kd_obs CA VI; cited from earlier work
T1 construct: made in house; host or cells: E. coli

[3] = biological target: T2, CA VI-mimic (CA II mutant A65T, N67Q, F130Y, V134Q, L203T) (Homo sapiens, UniProt P00918, A65T/F130Y/L203T/N67Q/V134Q); assay: Fluorescent thermal shift assay (FTSA), inhibitor binding to CA VI-mimic; details: for Kd / difference between Kd_obs and Kd_intr for CA VI-mimic: FTSA; for Kd: read-out: Kd_obs CA VI-mimic; for difference between Kd_obs and Kd_intr for CA VI-mimic: 37 °C
T2 construct: encoding full length CA II (1-260), was used in site-directed mutagenesis; made in house; host or cells: E. coli BL21(DE3)

CA II = biological target: T3, CA II (Homo sapiens, UniProt P00918); details: FTSA, pH 7.0, 37 °C; read-out: Kd_obs CA II; cited from earlier work
T3 construct: encoding full length CA II (1-260), was used in site-directed mutagenesis; made in house; host or cells: E. coli

CA VI [4] = biological target: T1, CA VI; assay: Stopped-flow CO2 hydration assay (SFA), inhibition of CA VI; type: biochemical
[5] = SFA pH 7.5, measured at 23 °C, extrapolated to 37 °C by van't Hoff equation, read-out: Kd_obs CA VI by SFA (in parentheses)
[6] = SFA, pH 7.5, 23 °C, read-out: Kd_obs CA VI by SFA

T1 sequence (P23280 18-308): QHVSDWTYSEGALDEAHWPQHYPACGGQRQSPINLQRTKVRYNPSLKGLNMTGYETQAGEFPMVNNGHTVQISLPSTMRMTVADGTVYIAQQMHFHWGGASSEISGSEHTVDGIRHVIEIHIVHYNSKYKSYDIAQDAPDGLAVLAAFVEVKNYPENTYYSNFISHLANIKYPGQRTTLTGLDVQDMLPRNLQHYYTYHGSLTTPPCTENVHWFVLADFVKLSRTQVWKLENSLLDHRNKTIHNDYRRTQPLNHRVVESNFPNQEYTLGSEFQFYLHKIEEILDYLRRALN

| Structure (SMILES) | pKa_SA [1] | Kd (CA VI [2]) | also measured |
| --- | --- | --- | --- |
| NS(=O)(=O)c1c(F)c(F)c(SCCO)c(F)c1F [Inhibitor 6] | 8.14 |  |  |
| NNc1c(F)c(F)c(S(N)(=O)=O)c(F)c1F [Inhibitor 7] | 8.84 | 1 µM |  |
| CC(=O)/N=c1/sc(S(N)(=O)=O)nn1C [Inhibitor 3] | 6.86 |  |  |
| NS(=O)(=O)c1ccc(C(=O)Cn2cnc3ccccc32)cc1Cl [Inhibitor 41] | 8.30 | 3.3 µM |  |
| NS(=O)(=O)c1c(F)c(F)c(S(=O)(=O)CCO)c(NC2CCCCCCC2)c1F [Inhibitor 25] | 8.01 |  |  |
| NS(=O)(=O)c1c(F)c(F)c(Sc2nc3ccccc3s2)c(F)c1F [Inhibitor 13] | 7.83 | 0.2 µM |  |
| NS(=O)(=O)c1c(F)c(F)c(Sc2nc(-c3ccccc3)c(-c3ccccc3)[nH]2)c(F)c1F [Inhibitor 12] | 7.69 | 0.14 µM |  |
| NS(=O)(=O)c1c(F)c(F)c(S(=O)(=O)CCc2ccccc2)c(NC2Cc3ccccc3C2)c1F [Inhibitor 27] | 7.87 | 2 µM | Kd ([3]; pH 7.0, 37 °C): 1 µM; Kd (CA II): 0.035 µM |
| CCCc1cnc(SCC(=O)c2ccc(S(N)(=O)=O)c(Cl)c2)nc1 [Inhibitor 37] | 8.90 |  |  |
| NS(=O)(=O)c1c(F)c(F)c(S(=O)(=O)CCc2ccccc2)c(NCc2ccccc2)c1F [Inhibitor 29] | 7.87 | 0.11 µM | Kd ([3]; pH 7.0, 37 °C): 0.2 µM |
| NS(=O)(=O)c1ccc(SCCc2ccccc2)cc1 [Inhibitor 16] | 10.1 | 1.1 µM | difference between Kd_obs and Kd_intr for CA VI-mimic [3]: 2500 fold |
| COc1ccc(CNc2c(F)c(SCCc3ccccc3)c(F)c(F)c2S(N)(=O)=O)cc1OC [Inhibitor 21] | 8.67 | 20 µM | Kd ([3]; pH 7.0, 37 °C): 3.3 µM; Kd (CA II): 1.8 µM |
| NS(=O)(=O)c1c(F)c(F)c(S(=O)(=O)CCO)c(F)c1NCc1ccccc1 [Inhibitor 11] | 7.85 | 0.13 µM | Kd ([3]; pH 7.0, 37 °C): 0.14 µM; Kd (CA II): 0.083 µM |
| Cc1cc(=O)[nH]c(SCC(=O)c2ccc(S(N)(=O)=O)c(Cl)c2)n1 [Inhibitor 39] | 8.90 |  |  |
| NS(=O)(=O)c1c(F)c(F)c(NCc2ccccc2)c(F)c1F [Inhibitor 8] | 8.47 | 1.2 µM |  |
| NS(=O)(=O)c1c(F)c(F)c(S(=O)(=O)CCc2ccccc2)c(F)c1F [Inhibitor 26] | 7.22 | 0.14 µM | difference between Kd_obs and Kd_intr for CA VI-mimic [3]: lower than 10 fold |
| CCCSc1ccc(S(N)(=O)=O)cc1 [Inhibitor 23] | 10.2 | 0.83 µM | difference between Kd_obs and Kd_intr for CA VI-mimic [3]: 3200 fold; Kd (CA VI [4]; [5]): 3.9 µM; Kd (CA VI [4]; [6]): 1.8 µM |
| NS(=O)(=O)c1ccc(SCCO)cc1 [Inhibitor 30] | 9.96 |  |  |
| Cc1cc(C)nc(Sc2c(F)c(F)c(S(N)(=O)=O)c(F)c2F)n1 [Inhibitor 14] | 8.02 | 1 µM | Kd (CA VI [4]; [5]): 0.63 µM; Kd (CA VI [4]; [6]): 0.29 µM |
| CCCSc1c(F)c(F)c(S(N)(=O)=O)c(F)c1F [Inhibitor 22] | 8.15 | 0.14 µM |  |
| NS(=O)(=O)c1c(F)c(F)c(S(=O)(=O)CCO)c(F)c1F [Inhibitor 10] | 7.28 |  | difference between Kd_obs and Kd_intr for CA VI-mimic [3]: lower than 10 fold |
| NS(=O)(=O)c1cccc(C(=O)Cn2c(Cc3ccccc3)nc3ccccc32)c1 [Inhibitor 43] | 9.60 | 10 µM | Kd ([3]; pH 7.0, 37 °C): 3.3 µM |

| Structure (SMILES) | pKa_SA [1] | Kd (CA VI [2]) | also measured |
| --- | --- | --- | --- |
| NS(=O)(=O)c1ccc(C(=O)Cn2c(Cc3ccccc3)nc3ccccc32)cc1Cl [Inhibitor 42] | 8.70 | 1.4 µM | Kd ([3]; pH 7.0, 37 °C): 0.33 µM |
| CCCc1cnc(SCC(=O)c2ccc(S(N)(=O)=O)cc2)nc1 [Inhibitor 38] | 9.40 |  |  |
| NS(=O)(=O)c1c(F)c(F)c(F)c(F)c1F [Inhibitor 4] | 8.12 | 0.43 µM |  |
| NS(=O)(=O)c1c(F)c(F)c(N2CCOCC2)c(F)c1F [Inhibitor 5] | 8.61 | 1.1 µM |  |
| NS(=O)(=O)c1c(F)c(F)c(S(=O)(=O)CCc2ccccc2)c(N[C@H](c2ccccc2)[C@H](O)c2ccccc2)c1F [Inhibitor 31] | 7.87 | 1 µM | Kd ([3]; pH 7.0, 37 °C): 2 µM; weakening of intrinsic binding to CA VI-mimic relative to comparison compound ([3]; Kd_intr, 30 vs 23, 6 vs 22, 19 vs 22, 31 vs 26): 9 fold; Kd (CA II): 0.033 µM |
| NS(=O)(=O)c1c(F)c(F)c(SCc2ccccc2)c(F)c1F [Inhibitor 32] | 8.53 | 0.33 µM | stronger intrinsic binding to CA VI-mimic than inhibitor 9 ([3]; Kd_intr): 4 fold; stronger intrinsic binding to CA VI-mimic than inhibitor 15 ([3]; Kd_intr): 2 fold |
| Cc1cc(C)nc(SCC(=O)c2cccc(S(N)(=O)=O)c2)n1 [Inhibitor 35] | 9.40 |  |  |
| COc1ccc(CNc2c(F)c(SCCO)c(F)c(F)c2S(N)(=O)=O)cc1OC [Inhibitor 24] | 8.67 | 11 µM | Kd ([3]; pH 7.0, 37 °C): 5 µM; Kd (CA II): 1.3 µM |
| CCOc1ccc2nc(S(N)(=O)=O)sc2c1 [Inhibitor 2] | 7.82 |  |  |
| NS(=O)(=O)c1ccc(C(=O)CSc2ccccc2)cc1Cl [Inhibitor 34] | 8.70 | 1.1 µM | Kd ([3]; pH 7.0, 37 °C): 0.33 µM; Kd (CA II): 0.0056 µM |
| NS(=O)(=O)c1cccc(C(=O)Cn2cnc3ccccc32)c1 [Inhibitor 40] | 9.60 | 6.7 µM | Kd ([3]; pH 7.0, 37 °C): 3.3 µM; Kd (CA II): 3.6 µM |
| CC(C)Nc1c(F)c(SCCc2ccccc2)c(F)c(F)c1S(N)(=O)=O [Inhibitor 20] | 8.67 | 3.3 µM | Kd ([3]; pH 7.0, 37 °C): 2.5 µM |
| NS(=O)(=O)C(F)(F)F [Inhibitor 1] | 6.02 |  |  |
| CCOC(=O)c1cnc(SCC(=O)c2ccc(Cl)c(S(N)(=O)=O)c2)[nH]c1=O [Inhibitor 33] | 8.90 |  |  |
| NS(=O)(=O)c1c(F)c(F)c(SCCc2ccccc2)c(F)c1F [Inhibitor 15] | 8.05 | 0.4 µM |  |
| NS(=O)(=O)c1cccc(C(=O)CSc2nc3ccccc3s2)c1 [Inhibitor 44] | 9.60 | 3.3 µM | Kd ([3]; pH 7.0, 37 °C): 0.5 µM; Kd (CA II): 0.14 µM |
| NS(=O)(=O)c1c(F)c(F)c(SCCc2ccccc2)c(F)c1N1CCOCC1 [Inhibitor 17] | 8.67 | 100 µM | Kd [3]: 100 µM |
| NS(=O)(=O)c1c(F)c(F)c(Sc2ccccc2)c(F)c1F [Inhibitor 9] | 7.80 | 0.2 µM |  |
| NS(=O)(=O)c1c(F)c(F)c(SCCC(=O)O)c(F)c1F [Inhibitor 19] | 7.97 | 0.5 µM |  |
| NS(=O)(=O)c1c(F)c(F)c(S(=O)(=O)c2ccccc2)c(F)c1F [Inhibitor 18] | 7.07 | 0.16 µM | difference between Kd_obs and Kd_intr for CA VI-mimic [3]: lower than 10 fold |
| CCc1cnc(SCC(=O)c2ccc(S(N)(=O)=O)c(Cl)c2)nc1 [Inhibitor 36] | 8.90 |  |  |
| C=CCNc1nc(-c2ccc(S(N)(=O)=O)c(Cl)c2)cs1 [Inhibitor 46] | 9.40 | 17 µM | Kd ([3]; pH 7.0, 37 °C): 1.1 µM; Kd (CA II): 0.1 µM |

Reference: paper PMC6722136, “Engineered Carbonic Anhydrase VI-Mimic Enzyme Switched the Structure and Affinities of Inhibitors” (Scientific Reports, 2019)
